These results are taken from a melting point compilation (Tetko et al.; mined from patent text by program, amines drawn as free bases though some values may be those of a salt).

Consider `Cc1cccc2c1N(C(=O)OC(C)(C)C)Cc1c(-c3noc(C4CC4)n3)ncn1-2`, for which the melting point (commonly the temperature of the solid-liquid transition) lay in the range of 189 to 192 °C.

`O=C(O)CCCc1ccc(C(NS(=O)(=O)c2ccc(Cl)cc2)C2CCCC2)cc1` (single isomer, unassigned; (-)) had a melting point of 160 to 162 °C. Then `NC(=O)c1nc(-c2ccccc2)n2c1CN=C(c1ccccc1F)c1cc(Cl)ccc1-2`, with 260 to 262 °C. The compound `CC(F)c1nc[nH]c(=O)c1Cl` (stereo not drawn) displayed a melting point of 190 to 191 °C. In the case of `COc1ccc(C[C@@H]2COc3ccc(OCc4ccc5ccccc5n4)cc3[C@@H]2O)cc1C(=O)O` (relative stereo), the melting point fell in the range of 167 to 169 °C. As for `CCOCc1cnc2c([N+](=O)[O-])cccc2c1Cl`, the melting point is 110 to 126 °C.

`O=C(CCC1CCCCC1)C1=C(O)CSC1=O` registered a melting point of 60 to 62 °C.

`CNC(=O)c1cnn(C(C)(C)C)c1C#N`: the melting point was in the range of 162 to 165 °C.

`CNC(=O)NCCN(c1ccc(Cl)cc1Cc1c(F)cccc1F)S(=O)(=O)c1ccc(OC)c(OC)c1`: the melting point was determined as 106 °C. Then `CCc1cc(OCc2ccc(-c3ccccc3-c3nnn(C(c4ccccc4)(c4ccccc4)c4ccccc4)n3)cc2)c2nc(OCC=O)ccc2n1`, with 168 to 169 °C; and `O=[N+]([O-])c1cccc(-c2ccc3c(n2)[nH]c2ccccc23)c1`, with 185 °C. For the compound `COc1ccc(F)cc1C(C)(C)CC(O)(CN1CC(C)NC(C)C1)C(F)(F)F` (stereo not drawn), the melting point fell in the range of 61 to 62 °C. Next, `Ic1cccc2c(SSc3cccc4c(I)cccc34)cccc12`: 202 to 203 °C.

In turn, `O=C(O)CN=c1sc2ccccc2s1` showed a melting point of 195 to 200 °C. Then `CC1(C)OC(=S)Nc2ccc(Br)cc21`, with 221 to 222 °C. Next, `COc1ccc(C2=NN(C)C(=O)CC2)cc1`: 133 to 135 °C. With `Fc1ccc(C2=NOC(c3cc(Cl)cc(Cl)c3)(C(F)(F)F)C2)cc1Br` (stereo not drawn), the melting point came out at 132 °C. Then `Cc1nc2c(N)nc3ccccc3c2n1CCCNC(=O)C1CCCCC1`, with 234 to 235 °C; and `CC(C)n1cc(-c2nc(C(N)=O)c(N)nc2-c2ccc(F)cc2)ccc1=O`, with 236 °C. With `CCOC(=O)CC1CN=C(c2cc3cccc(N(C)S(=O)(=O)c4cccnc4)c3[nH]2)S1` (stereo not drawn), the melting point fell in the range of 146 to 147 °C.

`COc1cccc(C(CN2CCN(c3cncc(Cl)n3)CC2)C2(O)CCCCC2)c1` (stereo not drawn) displayed a melting point of 157 to 158 °C. Then `CC(=O)OCC(=O)C1CC(OS(=O)(=O)c2c(C)cc(C)cc2C)C2C3CCC4CC(OC(C)=O)CCC4(C)C3CC(OC(C)=O)C12C` (stereo not drawn), with 156 to 157 °C.

As for `COc1ccc(C(=O)Nc2c(Cl)cncc2Cl)c2c1oc1ccc(NC(=O)NCC(=O)O)cc12`, the melting point was greater than 250 °C. Then `COc1ccc(NC(=NC#N)N2CCn3c(c(C(N)=O)c(Cl)c3-c3ccccc3)C2)cc1`, with 170 °C. The compound `CCN1CNS(=O)(=O)c2cc(Br)ccc21` yielded a melting point of 122 to 124 °C. Next, `COC(=O)Cc1c(C)ncnc1Oc1cccc(-c2ccccc2)c1`: 113 to 115 °C; `CC(=O)OCC(=O)Nc1cccc(Cl)c1C#N`: 109 to 110 °C; `C=CCNC(=O)c1ccc(N)cc1Br`: 115 to 117 °C.

Regarding `CCN(CC)CCc1ccc(NC(=O)C#Cc2ccc(C(F)(F)F)cc2Cl)cc1`, the melting point was in the range of 145 to 150 °C. For `Clc1ccc(Cn2cc(C=Cc3cccnc3)c3cc(OCc4ccc5ccccc5n4)ccc32)cc1`, the melting point is 169 to 171 °C. Next, `Nc1ccc(Oc2ccc3sncc3c2)c(C(F)(F)F)c1`: 136 °C; `COc1ccc(CN2CC=C(c3cc4ccccc4s3)CC2)cc1`: 158 to 160 °C; `O=[N+]([O-])c1cccc([N+](=O)[O-])c1NCCO`: 77 °C.
